Measured values: patent US8962681B2, “Use of aminoacetonitrile derivatives against endoparasites” (Zoetis LLC, priority 2011, dated 2015)

Tests used:
[1] = system: L4 stage larvae of D. immitis; assay: L4 stage larvae motility/kill assay; format: cell-based, Dirofilaria immitis; details: screened at 10 μM in duplicate, 96-well plate; motility observed at 4, 24, 48 and 72 hours; endpoint defined as ED80 (80% of larvae killed)
[2] = system: Dirofilaria immitis microfilariae; assay: in vitro microwell motility assay against heartworm microfilariae; format: cell-based; details: microfilaria from canine blood, 384 well plate, 72 hours incubation at 37° C. and 5% CO2, LemnaTec Scanalyzer

CC(C#N)(COc1ccccc1Cl)NC(=O)c1ccc(S(F)(F)(F)(F)F)cc1 (stereo not drawn) [test compound 16, N-[2-(2-chlorophenoxy)-1-cyano-1-methylethyl]-4-(pentafluorothio)benzamide] was tested, and the “active against L4 D. immitis at 10 μM” value [1] was “active” and the “ED50 (dose at which the overall microfilaria motility was reduced by 50% compared to that of an untreated control)” value [2] was 33 µM.

CC(C#N)(COc1cc(C#N)ccc1Oc1ccccc1)NC(=O)c1ccc(S(F)(F)(F)(F)F)cc1 (stereo not drawn) [test compound 60, N-[1-cyano-2-(5-cyano-2-phenoxyphenoxy)-1-methylethyl]-4-(pentafluorothio)benzamide] was tested, and the “active against L4 D. immitis at 10 μM” value [1] was “active” and the “ED50 (dose at which the overall microfilaria motility was reduced by 50% compared to that of an untreated control)” value [2] was 3.3 µM.

CC(C#N)(COc1ccc(F)cc1Cl)NC(=O)c1ccc(S(F)(F)(F)(F)F)cc1 (stereo not drawn) [test compound 18, N-[2-(2-chloro-4-fluorophenoxy)-1-cyano-1-methylethyl]-4-(pentafluorothio)-benzamide] was tested, and the “active against L4 D. immitis at 10 μM” value [1] was “active” and the “ED50 (dose at which the overall microfilaria motility was reduced by 50% compared to that of an untreated control)” value [2] was 33 µM.

With C[C@](C#N)(COc1ccc(C#N)cc1C(F)(F)F)NC(=O)c1ccc(S(F)(F)(F)(F)F)cc1 [test compound 51a] the “active against L4 D. immitis at 10 μM” value [1] was “active” and the “ED50 (dose at which the overall microfilaria motility was reduced by 50% compared to that of an untreated control)” value [2] was 10 µM.

With CC(C#N)(COc1ccc(-c2ccncc2)cc1C(F)(F)F)NC(=O)c1ccc(S(F)(F)(F)(F)F)cc1 (stereo not drawn) [test compound 81, N-{1-cyano-1-methyl-2-[4-pyridin-4-yl-2-(trifluoromethyl)phenoxy]ethyl}-4-(pentafluorothio)benzamide] the “active against L4 D. immitis at 10 μM” value [1] was “active” and the “ED50 (dose at which the overall microfilaria motility was reduced by 50% compared to that of an untreated control)” value [2] was 3.3 µM.

In the case of COc1ccc(OCC(C)(C#N)NC(=O)c2ccc(S(F)(F)(F)(F)F)cc2)c(C(F)(F)F)c1 (stereo not drawn) [test compound 42, N-{1-cyano-2-[4-methoxy-2-(trifluoromethyl)phenoxy]-1-methylethyl}-4-(pentafluorothio)benzamide], the “active against L4 D. immitis at 10 μM” value [1] is reported as “active” and the “ED50 (dose at which the overall microfilaria motility was reduced by 50% compared to that of an untreated control)” value [2] is reported as 33 µM.

In the case of CC(C#N)(NC(=O)c1ccc(S(F)(F)(F)(F)F)cc1)C1Cc2cc(C#N)cc(Cl)c2O1 (stereo not drawn) [test compound 80, N-[1-(7-chloro-5-cyano-2,3-dihydro-1-benzofuran-2-yl)-1-cyanoethyl]-4-(pentafluorothio)benzamide], the “active against L4 D. immitis at 10 μM” value [1] is reported as “active” and the “ED50 (dose at which the overall microfilaria motility was reduced by 50% compared to that of an untreated control)” value [2] is reported as 3.3 µM.

In the case of CC(C#N)(COc1ccccc1C(F)(F)F)NC(=O)c1ccc(S(F)(F)(F)(F)F)cc1 (stereo not drawn) [test compound 14, N-{1-cyano-1-methyl-2-[2-(trifluoromethyl)phenoxy]ethyl}-4-(pentafluorothio)-benzamide], the “active against L4 D. immitis at 10 μM” value [1] is reported as “active” and the “ED50 (dose at which the overall microfilaria motility was reduced by 50% compared to that of an untreated control)” value [2] is reported as 10 µM.

CC(C#N)(COc1cc(C#N)ccc1C(F)(F)F)NC(=O)c1ccc(S(F)(F)(F)(F)F)cc1 (stereo not drawn) [test compound 1, N-{1-cyano-2-[5-cyano-2-(trifluoromethyl)phenoxy]-1-methylethyl}-4-(pentafluorothio)benzamide] was tested, and the “active against L4 D. immitis at 10 μM” value [1] was “active” and the “ED50 (dose at which the overall microfilaria motility was reduced by 50% compared to that of an untreated control)” value [2] was 10 µM.
